# Experimental data from patent US8092020B2 (priority 2002, dated 2012).
# Experiments:
# Sprague-Dawley rat [1] = details: in vivo
# Hemoglobin (Hgb) = Hemoglobin (Hgb) (Homo sapiens, UniProt P68871+P69905); details: cited from earlier work
# Sprague-Dawley rat [2] = details: in vivo, ip
# Sprague-Dawley rat [3] = details: in vivo, ip; remark: listed apart in the source
# Chain of Hemoglobin (Hgb) (P68871 2-147): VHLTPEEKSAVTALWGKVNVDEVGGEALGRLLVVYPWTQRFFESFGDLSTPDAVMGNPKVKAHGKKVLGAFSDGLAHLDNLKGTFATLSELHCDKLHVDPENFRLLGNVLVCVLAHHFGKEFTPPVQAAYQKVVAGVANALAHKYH
# Chain of Hemoglobin (Hgb) (P69905 2-142): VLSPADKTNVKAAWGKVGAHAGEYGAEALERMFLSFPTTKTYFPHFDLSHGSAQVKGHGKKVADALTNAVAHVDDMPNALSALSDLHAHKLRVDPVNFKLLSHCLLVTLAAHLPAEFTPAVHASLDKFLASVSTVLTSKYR
molecule,measurement,setting,value
"[C-]#[O+] [CO, Carbon monoxide]",concentration causing significant changes in both arterial and venous coloration,Sprague-Dawley rat [1],≥ 500 ppm
same,extrapolated EC50 for fundal artery coloration changes,Sprague-Dawley rat [1],289±37 ppm
same,lowest level with statistically significant arterial coloration changes (p<0.05),Sprague-Dawley rat [1],250 ppm
same,maximal observed change in arterial coloration in all animals,Sprague-Dawley rat [1],38.5%
same,near maximal change in arterial coloration in animals which did not expire,Sprague-Dawley rat [1],92.3%
same,affinity of Hgb for CO relative to that for oxygen,Hemoglobin (Hgb),200-250 times greater
botulinum toxin,time to animal expiration post-injection,Sprague-Dawley rat [2],at least 14 hours
same,lowest dose with statistically significant decreases in the pupillary light reflex (p<0.05),Sprague-Dawley rat [3],1e-05 µg/kg
